Source: US20140243335A1, “SUBSTITUTED HYDOXAMIC ACIDS AND USES THEREOF” (Millennium Pharmaceuticals, Inc., priority 2010, published 2014)

The compounds below were run against T1, purified human HDAC6 (Homo sapiens, UniProt Q9UBN7) (assay: HDAC6 Enzyme Assay). Conditions: HDAC6 inhibition at a compound concentration of 0.412 μM; read-out: Percent Inhibition at 0.412 μM.
T1 construct: purchased BPS Bioscience 5006
T1 sequence (Q9UBN7 1-1215): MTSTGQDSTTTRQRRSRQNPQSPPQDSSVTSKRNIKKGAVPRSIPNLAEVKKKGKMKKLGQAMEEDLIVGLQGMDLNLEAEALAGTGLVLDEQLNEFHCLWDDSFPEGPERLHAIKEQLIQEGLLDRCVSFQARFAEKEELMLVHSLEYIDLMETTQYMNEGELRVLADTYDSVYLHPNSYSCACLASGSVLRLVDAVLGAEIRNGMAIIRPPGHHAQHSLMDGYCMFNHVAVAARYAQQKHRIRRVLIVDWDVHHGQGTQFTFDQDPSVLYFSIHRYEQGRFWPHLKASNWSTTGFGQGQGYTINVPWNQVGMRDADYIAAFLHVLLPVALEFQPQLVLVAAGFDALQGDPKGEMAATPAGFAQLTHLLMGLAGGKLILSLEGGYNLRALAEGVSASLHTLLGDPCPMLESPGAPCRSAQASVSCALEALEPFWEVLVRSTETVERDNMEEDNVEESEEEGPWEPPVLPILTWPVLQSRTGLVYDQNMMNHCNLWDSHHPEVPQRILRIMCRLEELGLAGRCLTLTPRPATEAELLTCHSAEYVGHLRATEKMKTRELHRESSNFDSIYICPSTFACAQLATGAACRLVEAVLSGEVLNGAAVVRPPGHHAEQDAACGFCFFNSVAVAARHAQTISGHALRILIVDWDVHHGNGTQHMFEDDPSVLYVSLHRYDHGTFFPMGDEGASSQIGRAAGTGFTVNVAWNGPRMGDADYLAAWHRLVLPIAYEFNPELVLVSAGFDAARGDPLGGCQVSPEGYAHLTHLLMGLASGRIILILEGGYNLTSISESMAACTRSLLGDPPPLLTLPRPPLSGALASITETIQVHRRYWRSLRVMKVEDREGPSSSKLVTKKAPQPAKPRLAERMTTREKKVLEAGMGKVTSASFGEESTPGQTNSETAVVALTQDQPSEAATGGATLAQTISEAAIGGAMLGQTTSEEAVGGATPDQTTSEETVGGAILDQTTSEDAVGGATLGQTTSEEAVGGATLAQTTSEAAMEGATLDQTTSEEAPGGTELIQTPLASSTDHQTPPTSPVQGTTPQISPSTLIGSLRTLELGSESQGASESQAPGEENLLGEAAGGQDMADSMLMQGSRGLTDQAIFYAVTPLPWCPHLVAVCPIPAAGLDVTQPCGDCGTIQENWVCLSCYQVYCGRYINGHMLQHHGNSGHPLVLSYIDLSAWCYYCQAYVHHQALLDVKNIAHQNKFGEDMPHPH
Assay type: biochemical

| Compound | inhibition at 0.412 µM [%] |
| --- | --- |
| Nc1cc(C2CCc3ccc(C(=O)NO)cc3C2)ncn1 (stereo not shown) [Compound I-98, 7-(6-aminopyrimidin-4-yl)-N-hydroxy-5,6,7,8-tetrahydronaphthalene-2-carboxamide] | 93 |
| O=C(NO)c1ccc2c(c1)CCC(c1ccncc1)C2 (stereo not shown) [Compound I-99, N-hydroxy-6-pyridin-4-yl-5,6,7,8-tetrahydronaphthalene-2-carboxamide] | 77 |
| O=C(NO)c1ccc2c(c1)CCC(c1ccccc1)C2 (stereo not shown) [Compound I-100, N-hydroxy-6-phenyl-5,6,7,8-tetrahydronaphthalene-2-carboxamide] | 62 |
| O=C(NO)c1ccc2c(c1)CCC(c1ccc(Cl)cc1)C2 (stereo not shown) [Compound I-101, 6-(4-chlorophenyl)-N-hydroxy-5,6,7,8-tetrahydronaphthalene-2-carboxamide] | 55 |
| CC(=O)Nc1cccc(C2CCc3cc(C(=O)NO)ccc3C2)c1 (stereo not shown) [Compound I-102, 6-[3-(acetylamino)phenyl]-N-hydroxy-5,6,7,8-tetrahydronaphthalene-2-carboxamide] | 85 |
| O=C(NO)c1ccc2c(c1)CCC(CCc1cccc(F)c1)C2 (stereo not shown) [Compound I-103, 6-[2-(3-fluorophenyl)ethyl]-N-hydroxy-5,6,7,8-tetrahydronaphthalene-2-carboxamide] | 63 |
| COc1ccccc1C1CCc2cc(C(=O)NO)ccc2C1 (stereo not shown) [Compound I-104, N-hydroxy-6-(2-methoxyphenyl)-5,6,7,8-tetrahydronaphthalene-2-carboxamide] | 56 |
| COc1ccc(C2CCc3cc(C(=O)NO)ccc3C2)cc1 (stereo not shown) [Compound I-105, N-hydroxy-6-(4-methoxyphenyl)-5,6,7,8-tetrahydronaphthalene-2-carboxamide] | 43 |
| O=C(NO)c1ccc2c(c1)CCC(NCc1ccc(Cl)cc1)C2 (stereo not shown) [Compound I-106, 6-[(4-chlorobenzyl)amino]-N-hydroxy-5,6,7,8-tetrahydronaphthalene-2-carboxamide] | 90 |
| O=C(NO)c1ccc2c(c1)CCC(NCc1ccncc1)C2 (stereo not shown) [Compound I-107, N-hydroxy-6-[(pyridin-4-ylmethyl)amino]-5,6,7,8-tetrahydronaphthalene-2-carboxamide] | 84 |
| O=C(NO)c1ccc2c(c1)CCC(Oc1ccncc1)C2 (stereo not shown) [Compound I-108, N-hydroxy-6-(pyridin-4-yloxy)-5,6,7,8-tetrahydronaphthalene-2-carboxamide] | 95 |
| O=C(NO)c1ccc2c(c1)CCC(c1ccccc1C(F)(F)F)C2 (stereo not shown) [Compound I-109, N-hydroxy-6-[2-(trifluoromethyl)phenyl]-5,6,7,8-tetrahydronaphthalene-2-carboxamide] | 53 |
| COc1cccc(C2CCc3cc(C(=O)NO)ccc3C2)c1 (stereo not shown) [Compound I-110, N-hydroxy-6-(3-methoxyphenyl)-5,6,7,8-tetrahydronaphthalene-2-carboxamide] | 42 |
| CC(C)(C)C(=O)NC1CCc2cc(C(=O)NO)ccc2C1 (stereo not shown) [Compound I-111, 6-[(2,2-dimethylpropanoyl)amino]-N-hydroxy-5,6,7,8-tetrahydronaphthalene-2-carboxamide] | 75 |
| COc1cccc(C(=O)NC2CCc3cc(C(=O)NO)ccc3C2)c1 (stereo not shown) [Compound I-112, N-hydroxy-6-[(3-methoxybenzoyl)amino]-5,6,7,8-tetrahydronaphthalene-2-carboxamide] | 87 |
| O=C(NO)c1ccc2c(c1)CCC(c1cccc(C(F)(F)F)c1)C2 (stereo not shown) [Compound I-113, N-hydroxy-6-[3-(trifluoromethyl)phenyl]-5,6,7,8-tetrahydronaphthalene-2-carboxamide] | 53 |
| CC1(C(=O)NC2CCc3ccc(C(=O)NO)cc3C2)CCNCC1 (stereo not shown) [Compound I-114, N-{7-[(hydroxyamino)carbonyl]-1,2,3,4-tetrahydronaphthalen-2-yl}-4-methylpiperidine-4-carboxamide] | 82 |

| Compound | inhibition at 0.412 µM [%] |
| --- | --- |
| O=C(NO)c1ccc2c(c1)CC(c1cccc(C(F)(F)F)c1)CC2 (stereo not shown) [Compound I-115, N-hydroxy-7-[3-(trifluoromethyl)phenyl]-5,6,7,8-tetrahydronaphthalene-2-carboxamide] | 81 |
| COc1ccccc1C1CCc2ccc(C(=O)NO)cc2C1 (stereo not shown) [Compound I-116, N-hydroxy-7-(2-methoxyphenyl)-5,6,7,8-tetrahydronaphthalene-2-carboxamide] | 81 |
| O=C(NO)c1ccc2c(c1)CC(OCc1ccc(Cl)cc1)CC2 (stereo not shown) [Compound I-117, 7-[(4-chlorobenzyl)oxy]-N-hydroxy-5,6,7,8-tetrahydronaphthalene-2-carboxamide] | 92 |
| CCOC1CCc2ccc(C(=O)NO)cc2C1 (stereo not shown) [Compound I-118, 7-ethoxy-N-hydroxy-5,6,7,8-tetrahydronaphthalene-2-carboxamide] | 75 |
| COc1cccc(C2CCc3ccc(C(=O)NO)cc3C2)c1 (stereo not shown) [Compound I-119, N-hydroxy-7-(3-methoxyphenyl)-5,6,7,8-tetrahydronaphthalene-2-carboxamide] | 74 |
| O=C(NO)c1ccc2c(c1)CC(c1cccnc1)CC2 (stereo not shown) [Compound I-120, N-hydroxy-7-pyridin-3-yl-5,6,7,8-tetrahydronaphthalene-2-carboxamide] | 85 |
| O=C(NO)c1ccc2c(c1)CCC(c1cccnc1)C2 (stereo not shown) [Compound I-121, N-hydroxy-6-pyridin-3-yl-5,6,7,8-tetrahydronaphthalene-2-carboxamide] | 80 |
| COc1ccccc1C(=O)NC1CCc2cc(C(=O)NO)ccc2C1 (stereo not shown) [Compound I-122, N-hydroxy-6-[(2-methoxybenzoyl)amino]-5,6,7,8-tetrahydronaphthalene-2-carboxamide] | 88 |
| Cn1cccc1C(=O)N1C2CCC1c1cc(C(=O)NO)ccc12 (stereo not shown) [Compound I-123, N-hydroxy-9-[(1-methyl-1H-pyrrol-2-yl)carbonyl]-1,2,3,4-tetrahydro-1,4-epiminonaphthalene-6-carboxamide] | 90 |
| O=C(NO)c1ccc2c(c1)CCC(OCc1ccc(Cl)cc1)C2 (stereo not shown) [Compound I-125, 6-[(4-chlorobenzyl)oxy]-N-hydroxy-5,6,7,8-tetrahydronaphthalene-2-carboxamide] | 87 |
| CC1(C(=O)Nc2cc(OC3CCc4cc(C(=O)NO)ccc4C3)ccn2)CCNCC1 (stereo not shown) [Compound I-148, N-[4-({6-[(hydroxyamino)carbonyl]-1,2,3,4-tetrahydronaphthalen-2-yl}oxy)pyridin-2-yl]-4-methylpiperidine-4-carboxamide] | 93 |
| CC(C)(C)C(=O)Nc1cc(OC2CCc3cc(C(=O)NO)ccc3C2)ccn1 (stereo not shown) [Compound I-150, 6-({2-[(2,2-dimethylpropanoyl)amino]pyridin-4-yl}oxy)-N-hydroxy-5,6,7,8-tetrahydronaphthalene-2-carboxamide] | 86 |
| CC1(C(=O)NC2CCc3cc(C(=O)NO)ccc3C2)CCNCC1 (stereo not shown) [Compound I-170, N-{6-[(hydroxyamino)carbonyl]-1,2,3,4-tetrahydronaphthalen-2-yl}-4-methylpiperidine-4-carboxamide] | 73 |
| CN(C)Cc1cc(C(=O)NC2CCc3cc(C(=O)NO)ccc3C2)cc(C(F)(F)F)c1 (stereo not shown) [Compound I-171, 6-{[3-[(dimethylamino)methyl]-5-(trifluoromethyl)benzoyl]amino}-N-hydroxy-5,6,7,8-tetrahydronaphthalene-2-carboxamide] | 77 |
| CN(C)Cc1cccc(C2CCc3cc(C(=O)NO)ccc3C2)c1 (stereo not shown) [Compound I-183, 6-{3-[(dimethylamino)methyl]phenyl}-N-hydroxy-5,6,7,8-tetrahydronaphthalene-2-carboxamide] | 69 |
| O=C(NO)c1ccc2c(c1)CC(c1ccccc1C(F)(F)F)CC2 (stereo not shown) [Compound I-185, N-hydroxy-7-[2-(trifluoromethyl)phenyl]-5,6,7,8-tetrahydronaphthalene-2-carboxamide] | 85 |
| O=C(NO)c1ccc2c(c1)CC(c1ccc(N3CCNCC3)nc1)CC2 (stereo not shown) [Compound I-190, N-hydroxy-7-(6-piperazin-1-ylpyridin-3-yl)-5,6,7,8-tetrahydronaphthalene-2-carboxamide] | 90 |
